Results published in patent US8173693B2, “Benzenesulfonamide derivatives and pharmaceutical composition thereof” (Purzer Pharmaceutical Co., Ltd., priority 2010, dated 2012).

How the values were obtained:
[1] = test system: Human prostate carcinoma PC-3 cells; assay: SRB assay; assay type: cell-based; conditions: Homo sapiens; for GI50: PC-3, 48 h; for IC50: PC-3, 48 hr
Procedure: (§1) Human Bladder Cancer TSGH cells, Human hepatoblastoma HepG2 cells, Human colorectal adenocarcinoma HT-29 cells, human nasopharyngeal carcinoma KB cells, Human gastric adenocarcinoma AGS cells, Human breast carcinoma MCF-7 cells, lung carcinoma A549 cells, and Human prostate carcinoma PC-3 cells were used in the preliminary cytotoxicity assays of the benzenesulfonamide derivatives of the present invention, and the inhibition activity against the tumor cells was evaluated.
(§2) All cell lines were maintained in RPMI 1640 supplied with 10% fetal bovine serum into 96-well microtiter plates and maintained in a humidified chamber at 37° C. containing 5% CO2. After 24 hr, cell lines in partial wells were fixed in situ with 10% trichloroacetic acid (TCA) to represent a measurement at the time of drug addition (T0). Then, cell lines in other wells were incubated with the benzenesulfonamide derivatives of the present invention for an additional 48 hr, and fixed in situ with 10% TCA to represent a measurement at the time of stopping reaction (Tx). After rinsing the plates with PBS and air-drying, 0.4% sulforhodamine B solution (weight per volume in 1% acetic acid) was added to each well and the plates were incubated for 10 min at room temperature. Unbound sulforhodamine B was removed with 1% acetic acid and the plates were air-dried. Cells bound with sulforhodamine B was subsequently solubilized with 10 mM Tris base (Trizma; Sigma). Cell proliferation was determined by measuring the optical density at 515 nm using a Thermomax microplate reader (Molecular Devices, Sunnyvale, Calif.). The half-inhibition concention (GI50) of the benzenesulfonamide derivatives of the present invention was obtained from the detected optical density.

[2] = test system: lung carcinoma A549 cells; assay: SRB assay; assay type: cell-based; conditions: Homo sapiens, 48 hr
Procedure: as §1, §2

[3] = test system: Human hepatoblastoma HepG2 cells; assay: SRB assay; assay type: cell-based; conditions: 48 hr
Procedure: as §1, §2

[4] = test system: Human gastric adenocarcinoma AGS cells; assay: SRB assay; assay type: cell-based; conditions: 48 hr
Procedure: as §1, §2

[5] = test system: Human colorectal adenocarcinoma HT-29 cells; assay: SRB assay; assay type: cell-based; conditions: 48 hr
Procedure: as §1, §2

[6] = test system: Human breast carcinoma MCF-7 cells; assay: SRB assay; assay type: cell-based; conditions: MCF7, 48 hr
Procedure: as §1, §2

[7] = test system: Human hepatoblastoma HepG2 cells; assay: SRB assay; assay type: cell-based; conditions: 48 hr; remark: listed apart in the source
[8] = test system: Human colorectal adenocarcinoma HT-29 cells; assay: SRB assay; assay type: cell-based; conditions: 48 hr; remark: listed apart in the source
[9] = test system: Human gastric adenocarcinoma AGS cells; assay: SRB assay; assay type: cell-based; conditions: 48 hr; remark: listed apart in the source
[10] = test system: Human breast carcinoma MCF-7 cells; assay: SRB assay; assay type: cell-based; conditions: MCF7, 48 hr; remark: listed apart in the source
[11] = test system: lung carcinoma A549 cells; assay: SRB assay; assay type: cell-based; conditions: Homo sapiens, 48 hr; remark: listed apart in the source
[12] = test system: Human Bladder Cancer TSGH cells; assay: MTT assay; assay type: cell-based; conditions: 72 hr
Procedure: as §1
(§3) All cell lines were maintained in RPMI 1640 supplied with 10% fetal bovine serum and maintained in a humidified chamber at 37° C. containing 5% CO2. Then, all cell lines were treated with compounds for 72 hr and subsequently incubated with 0.4 mg/mL of MTT at 37° C. for 2 hr. The medium was removed, and DMSO was added to dissolve MTT precipitate. Cell proliferation was determined by measuring the optical density at 540 nm using a Thermomax microplate reader (Molecular Devices, Sunnyvale, Calif.), and the IC50 values of the benzenesulfonamide derivatives of the present invention were calculated.

[13] = test system: human nasopharyngeal carcinoma KB cells; assay: MTT assay; assay type: cell-based; conditions: Homo sapiens, KB; MTT assay, 72 hr
Procedure: as §1, §3

[14] = test system: Human hepatoblastoma HepG2 cells; assay: MTT assay; assay type: cell-based; conditions: 72 hr, read-out: IC50 HepaG2
Procedure: as §1, §3

[15] = test system: Human colorectal adenocarcinoma HT-29 cells; assay: MTT assay; assay type: cell-based; conditions: 72 hr
Procedure: as §1, §3

tumor cells = assay: Preliminary cytotoxicity assays (MTT, SRB), tumor cell panel; assay type: cell-based; conditions: comparison over Tables 1-4
Procedure: as §1, §3
as §2, with “After rinsing the plates with PBS and air-drying, 0.4% sulforhodamine B solution (weight per volume in 1% acetic acid) was added to each well and the plates were incubated for 10 min at room temperature. Unbound sulforhodamine B was removed with 1% acetic acid and the plates were air-dried. Cells bound with sulforhodamine B was subsequently solubilized with 10 mM Tris base (Trizma; Sigma).” left out

SMILES	GI50 [1] [µM]	IC50 [1] [µM]	GI50 [2] [µM]	GI50 [3] [nM]	GI50 [4] [µM]	GI50 [5] [nM]	GI50 [6] [µM]	IC50 [7] [nM]	IC50 [8] [µM]	melting point [°C]	IC50 [9] [µM]	IC50 [10] [µM]	IC50 [11] [µM]	IC50 [12] [µM]	IC50 [13] [µM]	IC50 [14] [µM]	IC50 [15] [µM]	inhibitory activity against the tumor cells (in words) (tumor cells)
Cc1ccc(C)c2c1[nH]c1c(NS(=O)(=O)c3cccc(C(F)(F)F)c3)cccc12 [Compound 6j, N-(5,8-Dimethyl-9H-carbazol-1-yl)-3-trifluoromethylbenzenesulfonamide]	> 10	> 10	> 10	> 10000	> 10	> 10000	> 10	> 10000	> 10	217 to 218	> 10	> 10	> 10					
Cc1ccc(C)c2c1[nH]c1c(NS(=O)(=O)c3ccc(Cl)s3)cccc12 [Compound 6k, 5-Chloro-thiophene-2-sulfonic acid (5,8-dimethyl-9H-carbazol-1-yl)amide]	4.6	> 10	6.5	1300	6.7	2100	> 10	2700	5.6	232 to 234	> 10	> 10	10					
O=[N+]([O-])c1ccc(/N=N/c2c[nH]c3c(NS(=O)(=O)c4ccc(Cl)cc4)cccc23)cc1 [Compound 7a, 4-Chloro-N-[3-(4-nitrophenylazo)-1H-indol-7-yl]benzenesulfonamide]										217 to 218				3.6	4.5	9.1	5.9	higher than that of the compound 5d
COc1ccc(S(=O)(=O)N(C)c2cccc3c2[nH]c2c(C)ccc(C)c23)cc1 [Compound 15c, N-(5,8-Dimethyl-9H-carbazol-1-yl)-N-methyl-4-methoxybenzenesulfonamide]	> 10	> 10	> 10	> 10000	> 10	> 10000	> 10	> 10000	> 10	88 to 89	> 10	> 10	> 10					
Cc1ccc(C)c2c1[nH]c1c(N(C)S(=O)(=O)c3cccc(C(F)(F)F)c3)cccc12 [Compound 15j, N-(5,8-Dimethyl-9H-carbazol-1-yl)-N-methyl-3-trifluoromethylbenzenesulfonamide]	> 10	> 10	> 10	> 10000	7.8	5600	7.8	> 10000	10	192 to 194	> 10	> 10	> 10					
Cc1ccc(C)c2c1[nH]c1c(N(C)S(=O)(=O)c3ccc(Cl)s3)cccc12 [Compound 15k, 5-Chloro-thiophene-2-sulfonic acid (5,8-dimethyl-9H-carbazol-1-yl)-methyl-amide]	7	> 10	8.1	700	7.5	300	> 10	1600	3.9	179 to 181	> 10	> 10	> 10					
CCN(c1cccc2c1[nH]c1c(C)ccc(C)c12)S(=O)(=O)c1ccc(OC)cc1 [Compound 16c, N-(5,8-Dimethyl-9H-carbazol-1-yl)-N-ethyl-4-methoxybenzenesulfonamide]	0.06	0.3	0.4	40	0.4	50	0.4	80	0.3	151 to 152	1	0.8	> 10					
CCCN(c1cccc2c1[nH]c1c(C)ccc(C)c12)S(=O)(=O)c1ccc(OC)cc1 [Compound 17c, N-(5,8-Dimethyl-9H-carbazol-1-yl)-N-propyl-4-methoxybenzenesulfonamide]	3.5	8.6	5.9	800	0.6	300	6.1	1900	0.8	60 to 62	> 10	> 10	10					
COc1ccc(S(=O)(=O)N(c2cccc3c2[nH]c2c(C)ccc(C)c23)C(C)C)cc1 [Compound 18c, N-(5,8-Dimethyl-9H-carbazol-1-yl)-N-isopropyl-4-methoxybenzenesulfonamide]	4	9.4	7.8	500	0.5	200	9.5	1600	0.7	222 to 224	> 10	> 10	> 10					
COc1ccc(S(=O)(=O)Nc2cccc3c2[nH]c2ccccc23)cc1 [Compound 21a, N-(9H-Carbazol-1-yl)-4-methoxybenzenesulfonamide]	0.2	> 10	0.9	40	0.01	30	0.07	80	0.07	204 to 206	0.07	4.4	1.7					
O=S(=O)(Nc1cccc2c1[nH]c1ccccc12)c1cccc(C(F)(F)F)c1 [Compound 21b, N-(9H-Carbazol-1-yl)-3-trifluoromethylbenzenesulfonamide]	> 10	> 10	> 10	> 10000	> 10	> 10000	> 10	> 10000	> 10	188 to 190	> 10	> 10	> 10					
